Assay results: ChEMBL document CHEMBL1146129, “First dual M3 antagonists-PDE4 inhibitors: synthesis and SAR of 4,6-diaminopyrimidine derivatives” (Bioorg Med Chem Lett, 2006)

Legend:
Phosphodiesterase 4 = Phosphodiesterase 4 (Homo sapiens, UniProt P27815+Q08499+Q07343+Q08493); type: functional, cell-based; details: u-937
Description: Inhibition of PDE4 activity in U937 cells

[1] = biological target: T1, Muscarinic acetylcholine receptor M3 (Homo sapiens, UniProt P20309); assay: biochemical; type: cell-based, CHO
Target sequence in this assay (P20309 whole entry): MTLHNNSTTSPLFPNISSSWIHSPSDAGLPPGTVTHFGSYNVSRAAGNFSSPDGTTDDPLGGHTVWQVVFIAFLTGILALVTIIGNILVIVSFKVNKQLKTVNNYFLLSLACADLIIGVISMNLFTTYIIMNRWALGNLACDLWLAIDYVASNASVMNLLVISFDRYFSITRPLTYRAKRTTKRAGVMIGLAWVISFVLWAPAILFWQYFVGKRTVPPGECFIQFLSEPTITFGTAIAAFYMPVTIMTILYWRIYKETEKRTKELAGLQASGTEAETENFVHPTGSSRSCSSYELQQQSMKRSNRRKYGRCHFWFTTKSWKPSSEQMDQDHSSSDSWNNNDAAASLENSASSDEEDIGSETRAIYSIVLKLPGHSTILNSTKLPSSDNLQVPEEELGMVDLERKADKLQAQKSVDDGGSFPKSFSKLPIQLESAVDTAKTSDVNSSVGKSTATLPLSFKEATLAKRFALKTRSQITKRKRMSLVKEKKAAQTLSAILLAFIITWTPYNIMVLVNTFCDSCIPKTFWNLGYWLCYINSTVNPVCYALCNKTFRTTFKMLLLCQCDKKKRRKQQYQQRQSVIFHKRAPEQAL

[2] = buffer, pH 7.4
[3] = biological target: T1, Muscarinic acetylcholine receptor M3; assay: Displacement of [3H]methylscopolamine from recombinant human muscarinic M3 receptors expressed in CHO cells at 10 um; type: cell-based
Target sequence in this assay (P20309 whole entry, looked up): as the sequence (P20309 whole entry) above

Description for physchem: Dissociation constant, pKa of the compound

| IC50 (Phosphodiesterase 4) [nM] | Ki [1] [nM] | LogK-IAMex [2] | pKa (physchem) | inhibition [3] [%] | Structure (SMILES) |
| --- | --- | --- | --- | --- | --- |
| 1600 | 100 | 2.36 |  |  | Cc1c(NC2CC2)nc(C2CC2)nc1N1CCCC1 |
| 500 | 316 | 2.97 |  |  | Cc1c(NC2CC2)nc(C2CC2)nc1N1CCc2ccccc2C1 |
| 630 | 16 | 2.8 |  |  | Cc1c(NC2CC2)nc(C2CC2)nc1N1CCC(C)CC1 |
| 2500 | 398 |  | 6.47 |  | COc1c(NC2CC2)nc(C2CC2)nc1N1CCSCC1 |
| 2000 | 7.9 |  |  |  | Cc1c(NC2CCC2)nc(C2CC2)nc1N1CCCCCC1 |
| 320 | 79 | 2.14 | 6.99 |  | Cc1c(NC2CC2)nc(C2CC2)nc1N1CCSCC1 |
| 630 | 50 | 3.21 |  |  | CCC1CCN(c2nc(C3CC3)nc(NC3CC3)c2C)CC1 |
| 3200 | 3200 | 1.35 |  |  | Cc1c(NC2CC2)nc(C2CC2)nc1N1CCC(=O)CC1 |
| 4000 | 501 | 1.2 |  |  | Cc1c(NC2CC2)nc(C2CC2)nc1N1CCC(O)CC1 |
| 790 | 32 | 2.37 |  |  | Cc1c(NC2CC2)nc(C2CC2)nc1N1CC=CCC1 |
| 400 | 79 | 2.7 |  |  | C=C1CCN(c2nc(C3CC3)nc(NC3CC3)c2C)CC1 |
| 790 | 158 | 3.66 |  |  | Cc1c(NC2CC2)nc(C2CC2)nc1N1CCC2(CCCC2)CC1 |
| 250 |  |  | 5.27 | < 50 | Fc1c(NC2CC2)nc(C2CC2)nc1N1CCSCC1 |
| 790 |  | 1.45 |  | < 50 | Cc1c(NC2CC2)nc(C2CC2)nc1N1CCOCC1 |
| 500 | 13 | 2.5 |  |  | Cc1c(NC2CC2)nc(C2CC2)nc1N1CCCCC1 |
| 3200 | 32 |  |  |  | Cc1c(NC2CC2)nc([C@@H]2C[C@H]2C)nc1N1CCCCCC1 |
| 400 | 50 | 2.5 |  |  | Cc1c(NC2CC2)nc(C2CC2)nc1N1CCC(F)(F)CC1 |
| 2000 | 40 |  |  |  | Cc1c(NC2CC2)nc(C2CCC2)nc1N1CCCCCC1 |
| 2000 | 100 | 2.94 |  |  | Cc1c(NC2CC2)nc(C2CC2)nc1N1CCC(C(F)(F)F)CC1 |
| 2000 | 790 | 3.89 |  |  | Cc1c(NC2CC2)nc(C2CC2)nc1N1CCC(Cc2ccccc2)CC1 |
| 1600 | 16 | 3.05 |  |  | Cc1c(NC2CC2)nc(C2CC2)nc1N1CCCCCCC1 |
| 630 | 251 |  | 6.44 |  | Fc1c(NC2CC2)nc(C2CC2)nc1N1CCCCCC1 |
| 630 | 501 | 1.57 |  |  | Cc1c(NC2CC2)nc(C2CC2)nc1N1CCC(CO)CC1 |
| 790 | 79 |  | 7.15 |  | Nc1c(NC2CC2)nc(C2CC2)nc1N1CCCCCC1 |
| 320 | 25 | 3.02 |  |  | Cc1c(NC2CC2)nc(C2CC2)nc1N1CCC(C)(C)CC1 |
| 1260 | 79 |  |  |  | Cc1c(NC2CC2)nc(C2CCCC2)nc1N1CCCCCC1 |
| 500 | 6.3 | 3.11 |  |  | Cc1c(NC2CC2)nc(C2CC2)nc1N1CC2CCC(C2)C1 |

More lines, now with the values behind:

| Structure (SMILES) | IC50 (Phosphodiesterase 4) [nM] | Ki [1] [nM] | LogK-IAMex [2] | pKa (physchem) | inhibition [3] [%] |
| --- | --- | --- | --- | --- | --- |
| Brc1c(NC2CC2)nc(C2CC2)nc1N1CCCCCC1 | 630 | 316 |  | 6.21 |  |
| Cc1c(NC2CC2)nc(CC2CC2)nc1N1CCCCCC1 | 2000 | 126 |  |  |  |
| Cc1c(NCc2ccccc2)nc(C2CC2)nc1NC1CC1 | 4000 | 200 | 2.36 |  |  |
| CCc1c(NC2CC2)nc(C2CC2)nc1N1CCSCC1 | 1600 | 100 |  | 6.78 |  |
| Cc1c(NC2CCCCC2)nc(C2CC2)nc1NC1CC1 | 2500 | 316 | 2.71 |  |  |
| c1c(NC2CC2)nc(C2CC2)nc1N1CCCCCC1 | 400 | 63 |  | 8.03 |  |
| C1CCCN(c2nc(C3CC3)nc3c2CCCN3)CC1 | 500 | 50 |  |  |  |
| Cc1c(NC2CC2)nc(C(C)C)nc1N1CCCCCC1 | 2500 | 25 |  |  |  |
| C[C@@H]1C[C@H]1c1nc(NC2CC2)cc(N2CCCCCC2)n1 | 2500 | 398 |  |  |  |
| Cc1c(NCc2c(F)cccc2F)nc(C2CC2)nc1NC1CC1 | 2000 | 63 | 2.38 |  |  |
| Cc1c(NC2CC2)nc(C2CC2)nc1N(C)Cc1ccccc1 | 400 | 251 | 2.7 |  |  |
| Cc1c(NCCc2cccs2)nc(C2CC2)nc1NC1CC1 | 2500 | 79 | 2.57 |  |  |
| Cc1c(NC2(C)CC2)nc(C2CC2)nc1N1CCCCCC1 | 6300 | 10 |  |  |  |
| O=[N+]([O-])c1c(NC2CC2)nc(C2CC2)nc1N1CCCCCC1 | 1260 | 2510 |  | 4.64 |  |
| C1CCCN(c2nc(C3CC3)nc3c2CCCCN3)CC1 | 1300 | 10 |  |  |  |
| Cc1c(NC2CC2)nc(Cc2ccccc2)nc1N1CCCCCC1 | 1000 | 501 |  |  |  |
| Cc1c(NC2CCCCCC2)nc(C2CC2)nc1NC1CC1 | 2000 | 398 | 2.98 |  |  |
| Cc1c(N[C@H]2C[C@@H]2C)nc(C2CC2)nc1N1CCCCCC1 | 7900 | 7.9 |  |  |  |
| Cc1c(NCc2cccs2)nc(C2CC2)nc1NC1CC1 | 6300 | 126 | 2.21 |  |  |
